Test results reported in paper PMC3528769, “Comparative Study of the Fatty Acid Binding Process of a New FABP from Cherax quadricarinatus by Fluorescence Intensity, Lifetime and Anisotropy” (PLoS ONE, 2012).

Target: Cq-FABP (Cherax quadricarinatus, UniProt L0I6Z9)
Test: cis-Parinaric acid fluorescence intensity titration and competitive displacement
Type: binding
Conditions: calculated from the IC50 values (Eq. 2) using the fluorescence intensity of cis-parinaric acid; 7 µM CPA, 5 µM Cq-FABP; read-out: Kd,FA
Excerpt: Cis-parinaric acid and DAUDA were characterized by fluorescence emission in the 380–500 nm region (λmax,em: 410 nm) and in the 480–650 nm region (λmax,em: 540 nm), respectively (excitation wavelengths were set at 320 or 335 nm for cis-parinaric acid or DAUDA, respectively). The fluorescence intensity enhancement upon binding to Cq-FABP was monitored on a Cary-Eclipse spectrofluorimeter as indicated above. All the fluorescence emission intensities were corrected for the inner-filter effect. The emission intensity of a given fluorophore in the presence of Cq-FABP was also systematically corrected for the emission intensity of the free fluorophore. The calculation of Kd,FA was performed by measuring the IC50 value (inhibition concentration 50%) characterizing each non-fluorescent FA. As DAUDA poorly binds to Cq-FABP (see results section), only cis-parinaric acid (CPA) was used for measuring IC50 values. Titration and equilibrium displacement experiments using CPA were performed in buffer C (supplemented with 10% DMSO (v/v)). For the determination of IC50 values, the number of complexes corresponding to [CPA] = 7 µM and [Cq-FABP] = 5 µM was varied by increasing the concentration of non-fluorescent FA. The IC50 value corresponds to the concentration of non-fluorescent FA that displaces 50% of CPA from the fatty acid binding site of Cq-FABP and is related to Kd,FA through the Cheng-Prusoff relationship: [drawing 2] (2)

Cq-FABP, sequence (L0I6Z9 entry or part of it): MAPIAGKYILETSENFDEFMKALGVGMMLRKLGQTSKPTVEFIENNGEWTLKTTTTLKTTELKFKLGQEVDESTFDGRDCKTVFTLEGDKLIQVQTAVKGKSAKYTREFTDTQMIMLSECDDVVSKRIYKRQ

- Kd: 1800 ± 400 nM
SMILES: CCCCCCCCCCCCCCCC(=O)O [PA, Palmitic acid]
